Source: the supplement of paper PMC11061612

What was measured:
Capivasertib = compound: C1CN(CCC1(C(=O)N[C@@H](CCO)C2=CC=C(C=C2)Cl)N)C3=NC=NC4=C3C=CN4 [Capivasertib]; conditions: max 10 µM
Method in brief: (§1)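 Cancer cell lines were plated in 1536-well plates in 7.5 μl of DMEM/F12 or RPMI with 10% FBS and kept 24 hours at 37°C and 5% CO2 before 72 hours of dosing, with final DMSO typically 0.2%. CellTiter-Glo 2.0 luminescence measured viability, scaled between blank-well and DMSO-well means. Dose responses were fitted to a two-parameter logistic curve with a non-linear mixed effects model. This fit gives the single-agent IC50.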

AZD1775 = compound: C=CCn1c(=O)c2cnc(Nc3ccc(N4CCN(C)CC4)cc3)nc2n1-c1cccc(C(C)(C)O)n1 [AZD1775]; conditions: max 3 µM
Method in brief: as §1

Trametinib = compound: CC(=O)Nc1cccc(-n2c(=O)n(C3CC3)c(=O)c3c(Nc4ccc(I)cc4F)n(C)c(=O)c(C)c32)c1 [Trametinib]; conditions: max 1 µM
Method in brief: as §1

Palbociclib = compound: CC(=O)c1c(C)c2cnc(Nc3ccc(N4CCNCC4)cn3)nc2n(C2CCCC2)c1=O [Palbociclib]; conditions: max 10 µM
Method in brief: as §1

AZD1390 = compound: CC(C)n1c(=O)n(C)c2cnc3cc(F)c(-c4ccc(OCCCN5CCCCC5)nc4)cc3c21 [AZD1390]; conditions: max 0.3 µM
Method in brief: as §1

Venetoclax = compound: CC1(C)CCC(CN2CCN(c3ccc(C(=O)NS(=O)(=O)c4ccc(NCC5CCOCC5)c([N+](=O)[O-])c4)c(Oc4cnc5[nH]ccc5c4)c3)CC2)=C(c2ccc(Cl)cc2)C1 [Venetoclax]; conditions: max 1 µM
Method in brief: as §1

Dasatinib = compound: CC1=C(C(=CC=C1)Cl)NC(=O)C2=CN=C(S2)NC3=CC(=NC(=N3)C)N4CCN(CC4)CCO [Dasatinib]; conditions: max 2 µM
Method in brief: as §1

SG3199 = compound: CC1=CN2[C@@H](C1)C=NC3=CC(=C(C=C3C2=O)OC)OCCCCCOC4=C(C=C5C(=C4)N=C[C@@H]6CC(=CN6C5=O)C)OC [SG3199]; conditions: max 0.001 µM
Method in brief: as §1

AZD2811 = compound: CCN(CCO)CCCOc1ccc2c(Nc3cc(CC(=O)Nc4cccc(F)c4)[nH]n3)ncnc2c1 [AZD2811]; conditions: max 1 µM
Method in brief: as §1

SN-38 = compound: CCc1c2c(nc3ccc(O)cc13)-c1cc3c(c(=O)n1C2)COC(=O)[C@]3(O)CC [SN-38]; conditions: max 0.3 µM
Method in brief: as §1

AZD0156 = compound: CN(C)CCCOc1ccc(-c2ccc3ncc4c(c3c2)n(C2CCOCC2)c(=O)n4C)cn1 [AZD0156]; conditions: max 3 µM
Method in brief: as §1

AZD4320 = compound: CN(CC[C@H](CSC1=CC=CC=C1)NC2=C(C=C(C=C2)S(=O)(=O)NC(=O)C3=CC=C(C=C3)N4CCC(CC4)[C@H](C5=CC=CC=C5C6=CC=C(C=C6)Cl)O)S(=O)(=O)C(F)(F)F)CCO [AZD4320]; conditions: max 1 µM
Method in brief: as §1

Alisertib = compound: COc1cc(Nc2ncc3c(n2)-c2ccc(Cl)cc2C(c2c(F)cccc2OC)=NC3)ccc1C(=O)O [Alisertib]; conditions: max 10 µM
Method in brief: as §1

Gefitinib = compound: COc1cc2ncnc(Nc3ccc(F)c(Cl)c3)c2cc1OCCCN1CCOCC1 [Gefitinib]; conditions: max 10 µM
Method in brief: as §1

Prexasertib = compound: COc1cccc(OCCCN)c1-c1cc(Nc2cnc(C#N)cn2)n[nH]1 [Prexasertib]; conditions: max 1 µM
Method in brief: as §1

Doxorubicin = compound: COc1cccc2c1C(=O)c1c(O)c3c(c(O)c1C2=O)C[C@@](O)(C(=O)CO)C[C@@H]3O[C@H]1C[C@H](N)[C@H](O)[C@H](C)O1 [Doxorubicin]; conditions: max 1 µM
Method in brief: as §1

AZD5153 = compound: COc1nnc2ccc(N3CCC(c4ccc(OCCN5CCN(C)C(=O)[C@H]5C)cc4)CC3)nn12 [AZD5153]; conditions: max 1 µM
Method in brief: as §1

Lapatinib = compound: CS(=O)(=O)CCNCc1ccc(-c2ccc3ncnc(Nc4ccc(OCc5cccc(F)c5)c(Cl)c4)c3c2)o1 [Lapatinib]; conditions: max 10 µM
Method in brief: as §1

AZD8186 = compound: C[C@@H](Nc1cc(F)cc(F)c1)c1cc(C(=O)N(C)C)cc2c(=O)cc(N3CCOCC3)oc12 [AZD8186]; conditions: max 3 µM
Method in brief: as §1

Crizotinib = compound: C[C@@H](Oc1cc(-c2cnn(C3CCNCC3)c2)cnc1N)c1c(Cl)ccc(F)c1Cl [Crizotinib]; conditions: max 10 µM
Method in brief: as §1

Savolitinib = compound: C[C@@H](c1ccc2nccn2c1)n1nnc2ncc(-c3cnn(C)c3)nc21 [Savolitinib]; conditions: max 1 µM
Method in brief: as §1

AZD6738 = compound: C[C@@H]1COCCN1C2=NC(=NC(=C2)C3(CC3)[S@](=N)(=O)C)C4=C5C=CNC5=NC=C4 [AZD6738]; conditions: max 10 µM
Method in brief: as §1

AZD5991 = compound: Cc1c2c(nn1C)CSCc1cc(n(C)n1)CSc1cc(c3ccccc3c1)OCCCc1c(C(=O)O)n(C)c3c-2c(Cl)ccc13 [AZD5991]; conditions: max 1 µM
Method in brief: as §1

AZD7648 = compound: Cc1cc2ncnn2cc1Nc1ncc2c(n1)n(C1CCOCC1)c(=O)n2C [AZD7648]; conditions: max 10 µM
Method in brief: as §1

Taselisib = compound: Cc1nc(-c2cn3c(n2)-c2ccc(-c4cnn(C(C)(C)C(N)=O)c4)cc2OCC3)n(C(C)C)n1 [Taselisib]; conditions: max 10 µM
Method in brief: as §1

Selumetinib = compound: Cn1cnc2c(F)c(Nc3ccc(Br)cc3Cl)c(C(=O)NOCCO)cc21 [Selumetinib]; conditions: max 10 µM
Method in brief: as §1

Olaparib = compound: O=C(c1cc(Cc2n[nH]c(=O)c3ccccc23)ccc1F)N1CCN(C(=O)C2CC2)CC1 [Olaparib]; conditions: max 10 µM
Method in brief: as §1

Row | Cell Line | IC50, cell viability 72 h (Capivasertib) [nM] | IC50, cell viability 72 h (AZD1775) [nM] | IC50, cell viability 72 h (Trametinib) [nM] | IC50, cell viability 72 h (Palbociclib) [nM] | IC50, cell viability 72 h (AZD1390) [nM] | IC50, cell viability 72 h (Venetoclax) [nM] | IC50, cell viability 72 h (Dasatinib) [nM] | IC50, cell viability 72 h (SG3199) [nM] | IC50, cell viability 72 h (AZD2811) [nM] | IC50, cell viability 72 h (SN-38) [nM] | IC50, cell viability 72 h (AZD0156) [nM] | IC50, cell viability 72 h (AZD4320) [nM] | IC50, cell viability 72 h (Alisertib) [nM] | IC50, cell viability 72 h (Gefitinib) [nM] | IC50, cell viability 72 h (Prexasertib) [nM] | IC50, cell viability 72 h (Doxorubicin) [nM] | IC50, cell viability 72 h (AZD5153) [nM] | IC50, cell viability 72 h (Lapatinib) [nM] | IC50, cell viability 72 h (AZD8186) [nM] | IC50, cell viability 72 h (Crizotinib) [nM] | IC50, cell viability 72 h (Savolitinib) [nM] | IC50, cell viability 72 h (AZD6738) [nM] | IC50, cell viability 72 h (AZD5991) [nM] | IC50, cell viability 72 h (AZD7648) [nM] | IC50, cell viability 72 h (Taselisib) [nM] | IC50, cell viability 72 h (Selumetinib) [nM] | IC50, cell viability 72 h (Olaparib) [nM]
1 | DAN-G (Pancreatic Carcinoma) | > 10000 | 405 | 675 | > 10000 | > 300 | > 1000 | > 2000 | > 1 | > 1000 | > 300 | > 3000 | > 1000 | > 10000 | > 10000 | 72.7 | > 1000 | > 1000 | > 10000 | > 3000 | > 10000 | > 1000 | 5490 | > 1000 | > 10000 | 718 | > 10000 | > 10000
2 | ESO51 (Esophageal Adenocarcinoma) | > 10000 | 298 | 35 | > 10000 | > 300 | > 1000 | > 2000 | > 1 | > 1000 | > 300 | > 3000 | > 1000 | > 10000 | > 10000 | 42.4 | > 1000 | 354 | > 10000 | > 3000 | 186 | 14.2 | 1790 | > 1000 | > 10000 | > 10000 | > 10000 | > 10000
3 | G-361 (Melanoma) | > 10000 | 1590 | 14.6 | > 10000 | > 300 | > 1000 | > 2000 | > 1 | > 1000 | > 300 | > 3000 | > 1000 | > 10000 | > 10000 | 149 | 816 | 277 | 8000 | > 3000 | 8660 | > 1000 | > 10000 | 306 | > 10000 | 7240 | 1540 | > 10000
